Measured values reported in patent US7208500B2, “Thienopyridine-phenylacetamides and their derivatives useful as new anti-angiogenic agents” (Agouron Pharmaceuticals, Inc., priority 2003, dated 2007).

Legend:
[1] = biological target: T1, unphosphorylated VEGF-R2D50 (FLVK), cytosolic domain of human VEGF-R2 (Homo sapiens, UniProt P35968, DEL940-989/E990V); experiment: VEGF-R2 coupled spectrophotometric assay (FLVK); format: biochemical
T1 construct: VEGF-R2D50 contains residues 806–939 and 990–1171; made in house; host or cells: baculovirus/insect cell system
T1 sequence (P35968 with tags, fused parts or gaps DEL940-989/E990V limits assumed): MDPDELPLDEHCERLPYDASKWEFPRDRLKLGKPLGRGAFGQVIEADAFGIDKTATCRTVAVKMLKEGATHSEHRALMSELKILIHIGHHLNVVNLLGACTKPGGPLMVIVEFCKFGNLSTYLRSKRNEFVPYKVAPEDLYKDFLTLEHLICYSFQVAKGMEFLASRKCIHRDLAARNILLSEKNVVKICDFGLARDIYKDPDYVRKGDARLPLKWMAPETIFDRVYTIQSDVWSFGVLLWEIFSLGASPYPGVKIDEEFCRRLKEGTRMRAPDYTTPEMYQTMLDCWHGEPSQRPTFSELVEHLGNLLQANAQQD
From the text: This construct determines the ability of a test compound to inhibit tyrosine kinase activity. A construct (VEGF-R2D50) of the cytosolic domain of human vascular endothelial growth factor receptor 2 (VEGF-R2) lacking the 50 central residues of the 68 residues of the kinase insert domain was expressed in a baculovirus/insect cell system. Of the 1356 residues of full-length VEGF-R2, VEGF-R2D50 contains residues 806–939 and 990–1171, and also one point mutation (E990V) within the kinase insert domain relative to wild-type VEGF-R2. Autophosphorylation of the purified construct was performed by incubation of the enzyme at a concentration of […] in the presence of 3 mM ATP and 40 mM MgCl2 in 100 mM HEPES, pH 7.5, containing 5% glycerol and 5 mM DTT, at 4° C. for 2 h. […] See Parast et al., Biochemistry, 37, 16788–16801 (1998).
The production of ADP from ATP that accompanies phosphoryl transfer was coupled to oxidation of NADH using phosphoenolpyruvate (PEP) and a system having pyruvate kinase (PK) and lactic dehydrogenase (LDH). The oxidation of NADH was monitored by following the decrease of absorbance at 340 nm (e340=6.22 cm^−1 mM^−1) using a Beckman DU 650 spectrophotometer. Assay conditions for phosphorylated VEGF-R2D50 (indicated as FLVK-P in the tables below) were the following: 1 mM PEP; […]; 50 units of LDH/mL; 20 units of PK/mL; 5 mM DTT; 5.1 mM poly(E4Y1); 1 mM ATP; and 25 mM MgCl2 in 200 mM HEPES, pH 7.5. Assay conditions for unphosphorylated VEGF-R2D50 (indicated as FLVK in the tables) were the following: 1 mM PEP; […]; 50 units of LDH/mL; 20 units of PK/mL; 5 mM DTT; 20 mM poly(E4Y1); 3 mM ATP; and 60 mM MgCl2 and 2 mM MnCl2 in 200 mM HEPES, pH 7.5. Assays were initiated with 5 to 40 nM of enzyme. Ki values were determined by measuring enzyme activity in the presence of varying concentrations of test compounds. The percent inhibition at 50 nm (% inhibition@50 nm) was determined by linear least-squares regression analysis of absorpbance as a function of time. The binding inhibitions were fitted to equation as described by Morrison. The data were analyzed using Enzyme Kinetic and Kaleidagraph software.

[2] = biological target: T2, FGF-R1 intracellular kinase domain (Homo sapiens, UniProt P11362, C488A/C584S/L457V); experiment: FGF-R spectrophotometric assay; format: biochemical; conditions: 50 nM test compound; read-out: FGF-P (% inh @ 50 nM)
T2 construct: starting from the endogenous methionine residue 456 to glutamate 766; made in house; host or cells: baculovirus vector expression system
T2 sequence (P11362 456-766 L457V/C488A/C584S): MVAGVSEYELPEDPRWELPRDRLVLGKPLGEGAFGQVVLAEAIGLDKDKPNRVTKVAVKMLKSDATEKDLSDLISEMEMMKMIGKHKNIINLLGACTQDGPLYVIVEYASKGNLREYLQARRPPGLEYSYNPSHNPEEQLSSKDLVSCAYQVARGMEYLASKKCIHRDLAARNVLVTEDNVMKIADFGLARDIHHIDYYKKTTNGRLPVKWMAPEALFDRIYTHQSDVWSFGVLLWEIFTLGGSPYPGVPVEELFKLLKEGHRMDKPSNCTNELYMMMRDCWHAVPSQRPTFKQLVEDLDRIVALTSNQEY
Protocol: The intracellular kinase domain of human FGF-R1 was expressed using the baculovirus vector expression system starting from the endogenous methionine residue 456 to glutamate 766, according to the residue numbering system of Mohammadi et al., Mol. Cell. Biol., 16, 977–989 (1996). In addition, the construct also has the following 3 amino acid substitutions: L457V, C488A, and C584S.
The spectrophotometric assay was carried out as described above for VEGF-R2, except for the following changes in concentration: FGF-R=50 nM, ATP=2 mM, and poly(E4Y1)=15 mM.

[3] = tested on: human umbilical vein endothelial cells (HUVEC); experiment: HUVEC + VEGF proliferation assay; format: cell-based; conditions: VEGF-stimulated proliferation, final VEGF 6 ng/mL, 72 hours, MTT
Protocol: This assay determines the ability of a test compound to inhibit the growth factor-stimulated proliferation of human umbilical vein endothelial cells (“HUVEC”). HUVEC cells (passage 3–4, Clonetics, Corp.) were thawed into EGM2 culture medium (Clonetics Corp) in T75 flasks. Fresh EGM2 medium was added to the flasks 24 hours later. Four or five days later, cells were exposed to another culture medium (F12K medium supplemented with 10% fetal bovine serum (FBS), […] endothelial cell growth supplement (ECGS), and 0.1 mg/mL heparin). Exponentially-growing HUVEC cells were used in experiments thereafter. Ten to twelve thousand HUVEC cells were plated in 96-well dishes in […] of rich, culture medium (described above). The cells were allowed to attach for 24 hours in this medium. The medium was then removed by aspiration and […] of starvation media (F12K+1% FBS) was added to each well. After 24 hours, […] of test agent dissolved in 1% DMSO in starvation medium or this vehicle alone was added into each treatment well; the final DMSO concentration was 0.1%. One hour later, […] of VEGF (30 ng/mL) in starvation media was added to all wells except those containing untreated controls; the final VEGF concentration was 6 ng/mL. Cellular proliferation was quantified 72 hours later by MTT dye reduction, at which time cells were exposed for 4 hours MTT (Promega Corp.). Dye reduction was stopped by addition of a stop solution (Promega Corp.) and absorbance at 595 nm was determined on a 96-well spectrophotometer plate reader.

Compound	Ki [1] [nM]	inhibition at 0.05 µM [2] [%]	IC50 [3] [nM]
O=C(Cc1ccc(Oc2ccnc3cc(C(=O)N4CCC4)sc23)cc1)Nc1ccc(F)cn1 [Example 29, 2-{4-[2-(Azetidine-1-carbonyl)-thieno[3,2-b]pyridin-7-yloxy]-phenyl}-N-(5-fluoro-pyridin-2-yl)-acetamide]	1 to 10	0 to 5	> 10
O=C(Cc1ccc(Oc2ccnc3cc(C(=O)N4CCC4)sc23)cc1)Nc1ccc(C(F)(F)F)cn1 [Example 27, 2-{4-[2-(Azetidine-1-carbonyl)-thieno[3,2-b]pyridin-7-yloxy]-phenyl}-N-(5-trifluoromethyl-pyridin-2-yl)-acetamide]	< 1	0 to 5	1 to 10
CNC(=O)Cc1ccc(Oc2ccnc3cc(C(=O)N4CC[C@@H](O)C4)sc23)cc1 [Example 69, 2-{4-[2-((R)-3-Hydroxy-pyrrolidine-1-carbonyl)-thieno[3,2-b]pyridin-7-yloxy]-phenyl}-N-methyl-acetamide]	> 10	0 to 5	> 10
Cc1ccnc(NC(=O)Cc2ccc(Oc3ccnc4cc(C(=O)N5CC[C@@H](O)C5)sc34)cc2)c1 [Example 15, 2-{4-[2-((R)-3-Hydroxy-pyrrolidine-1-carbonyl)-thieno[3,2-b]pyridin-7-yloxy]-phenyl}-N-(4-methyl-pyridin-2-yl)-acetamide]	< 1	0 to 5	< 1
CNC(=O)C(O)c1ccc(Oc2ccnc3cc(C(=O)N4CC[C@@H](O)C4)sc23)cc1 (stereo partly drawn) [Example 76, 2-Hydroxy-2-{4-[2-((R)-3-hydroxy-pyrrolidine-1-carbonyl)-thieno[3,2-b]pyridin-7-yloxy]-phenyl}-N-methyl-acetamide]	1 to 10	0 to 5	> 10
O=C(Cc1ccc(Oc2ccnc3cc(C(=O)N4CC[C@@H](O)C4)sc23)cc1)Nc1ccc(C(F)(F)F)cn1 [Example 18, 2-{4-[2-((R)-3-Hydroxy-pyrrolidine-1-carbonyl)-thieno[3,2-b]pyridin-7-yloxy]-phenyl}-N-(5-trifluoromethyl-pyridin-2-yl)-acetamide]	< 1	5 to 10	> 10
O=C(Cc1ccc(Oc2ccnc3cc(C(=O)N4CC[C@@H](O)C4)sc23)cc1)Nc1ccc(Cl)cn1 [Example 16, N-(5-Chloro-pyridin-2-yl)-2-{4-[2-((R)-3-hydroxy-pyrrolidine-1-carbonyl)-thieno[3,2-b]pyridin-7-yloxy]-phenyl}-acetamide]	1 to 10	0 to 5	> 10
Cn1ccnc1-c1cc2nccc(Oc3ccc(CC(=O)Nc4ccc(Cl)cn4)cc3)c2s1 [Example 10, N-(5-Chloro-pyridin-2-yl)-2-{4-[2-(1-methyl-1H-imidazol-2-yl)-thieno[3,2-b]pyridin-7-yloxy]-phenyl}-acetamide]	< 1	0 to 5	< 1
C=C(C(=O)NC)c1ccc(Oc2ccnc3cc(C(=O)N4CC[C@@H](O)C4)sc23)cc1 [Example 66, 2-{4-[2-((R)-3-Hydroxy-pyrrolidine-1-carbonyl)-thieno[3,2-b]pyridin-7-yloxy]-phenyl}-N-methyl-acrylamide]	> 10	0 to 5	> 10
O=C(Cc1ccc(Oc2ccnc3cc(C(=O)N4CCC4)sc23)cc1)Nc1ccc(Cl)cn1 [Example 28, 2-{4-[2-(Azetidine-1-carbonyl)-thieno[3,2-b]pyridin-7-yloxy]-phenyl}-N-(5-chloro-pyridin-2-yl)-acetamide]	< 1	5 to 10	< 1
O=C(Cc1ccc(Oc2ccnc3cc(C(=O)N4CC[C@@H](O)C4)sc23)cc1)Nc1cc2ccccc2cn1 [Example 17, 2-{4-[2-((R)-3-Hydroxy-pyrrolidine-1-carbonyl)-thieno[3,2-b]pyridin-7-yloxy]-phenyl}-N-isoquinolin-3-yl-acetamide]	< 1	> 10	> 10
CCCCNC(=O)Oc1ccc(Oc2ccnc3cc(C(=O)N4CCC4)sc23)cc1 [Example 86, butyl-carbamic acid 4-[2-(azetidine-1-carbonyl)-thieno[3,2-b]pyridin-7-yloxy]-phenyl ester]	1 to 10	0 to 5	< 1
Cn1ccnc1-c1cc2nccc(Oc3ccc(CC(=O)Nc4ccccn4)c(Cl)c3)c2s1 [Example 60, 2-{2-Chloro-4-[2-(1-methyl-1H-imidazol-2-yl)-thieno[3,2-b]pyridin-7-yloxy]-phenyl}-N-pyridin-2-yl-acetamide]	1 to 10	0 to 5	> 10
O=C(Cc1ccc(Oc2ccnc3cc(C(=O)N4CCC4)sc23)cc1)Nc1cc2ccccc2cn1 [Example 31, 2-{4-[2-(Azetidine-1-carbonyl)-thieno[3,2-b]pyridin-7-yloxy]-phenyl}-N-isoquinolin-3-yl-acetamide]	< 1	0 to 5	< 1
Cc1cccc(NC(=O)Cc2ccc(Oc3ccnc4cc(C(=O)N5CCC5)sc34)cc2)n1 [Example 25, 2-{4-[2-(Azetidine-1-carbonyl)-thieno[3,2-b]pyridin-7-yloxy]-phenyl}-N-(6-methyl-pyridin-2-yl)-acetamide]	< 1	5 to 10	1 to 10
Cc1ccnc(NC(=O)Cc2ccc(Oc3ccnc4cc(C(=O)N5CCC5)sc34)cc2)c1 [Example 23, 2-{4-[2-(Azetidine-1-carbonyl)-thieno[3,2-b]pyridin-7-yloxy]-phenyl}-N-(4-methyl-pyridin-2-yl)-acetamide]	< 1	0 to 5	< 1
Cc1cc(C)nc(NC(=O)Cc2ccc(Oc3ccnc4cc(C(=O)N(C)C)sc34)cc2)c1 [Example 7, 7-{4-[(4,6-Dimethyl-pyridin-2-ylcarbamoyl)-methyl]-phenoxy}-thieno[3,2-b]pyridine-2-carboxylic acid dimethylamide]	< 1	5 to 10	< 1
Cc1cc(C)nc(NC(=O)Cc2ccc(Oc3ccnc4cc(C(=O)N5CC[C@@H](O)C5)sc34)cc2)c1 [Example 14, N-(4,6-Dimethyl-pyridin-2-yl)-2-{4-[2-((R)-3-hydroxy-pyrrolidine-1-carbonyl)-thieno[3,2-b]pyridin-7-yloxy]-phenyl}-acetamide]	< 1	5 to 10	1 to 10
